Earlier results as cited in article PMC10006169, “A phase I trial of LXS196, a protein kinase C (PKC) inhibitor, for metastatic uveal melanoma” (British Journal of Cancer, 2023).

Tested on: dog
Design: method as in ref 20 = [20]; 20. IDEAYA Biosciences. IDE196 (LXS196, Darovasertib) investigator’s brochure. IDEAYA Biosciences; 2022.
Conditions: cited from earlier work

For CC1(N)CCN(c2cccnc2NC(=O)c2nc(-c3ncccc3C(F)(F)F)cnc2N)CC1 [LXS196], the Reversibility of findings (4-week recovery phase) is given as “partial to complete reversibility”, the Potential target organ (4-week toxicology study, dog) is given as “GI tract” and the Potential toxicity (single-dose and 4-week repeated dose, dog) is given as “decrease in systolic blood pressure”.
